# Measurements reported in PubChem BioAssay (NCI).
# Several values for one entry are separate records, joined by “and”; a condition that tells them apart may be missing. Identical values can stand only once.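 The compound was tested at five concentrations on cells cultured in 96-well plates, with a 48-hour exposure period. GI50: concentration for 50% inhibition of growth. TGI denotes the concentration required for complete inhibition of growth.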
# How the values were obtained:
# Test in all cases: growth of human tumour cells (NCI), 48 h
# NCI-H522 lung = tested on: NCI-H522 lung
# KM12 colon = tested on: KM12 colon
# OVCAR-4 ovarian = tested on: OVCAR-4 ovarian
# ACHN renal = tested on: ACHN renal
# SNB-75 CNS = tested on: SNB-75 CNS
# M14 melanoma = tested on: M14 melanoma
# MCF7 breast = tested on: MCF7 breast
# SF-539 CNS = tested on: SF-539 CNS
# CCRF-CEM leukemia = tested on: CCRF-CEM leukemia
# SNB-19 CNS = tested on: SNB-19 CNS
Structure (SMILES),GI50 (NCI-H522 lung) [µM],TGI (NCI-H522 lung) [µM],GI50 (KM12 colon),TGI (KM12 colon),GI50 (OVCAR-4 ovarian),TGI (OVCAR-4 ovarian) [µM],GI50 (ACHN renal) [µM],TGI (ACHN renal) [µM],GI50 (SNB-75 CNS),TGI (SNB-75 CNS),GI50 (M14 melanoma) [µM],TGI (M14 melanoma) [µM],GI50 (MCF7 breast) [µM],TGI (MCF7 breast) [µM],GI50 (SF-539 CNS) [µM],TGI (SF-539 CNS),GI50 (CCRF-CEM leukemia) [µM],TGI (CCRF-CEM leukemia) [µM],GI50 (SNB-19 CNS),TGI (SNB-19 CNS) [µM]
O=C(N/N=C/c1ccc(Cl)cc1Cl)c1ccc2nc(-c3ccc(Cl)cc3)[nH]c2c1,2.24,5.85,2.03 µM,4.46 µM,1.74 µM,3.29,1.74,3.17,1.59 µM,3.62 µM,1.65,3.84,1.15,2.56,1.7,3.17 µM,1.43,9.03,2.34 µM,5.06
COc1cc(F)c(/C=C/c2cc(/C=C/c3cc(OC)c(OC)cc3F)n(-c3cc(F)cc(F)c3)n2)cc1OC,1.91,5.47,3.3 µM,12.8 µM,1.97 µM,5.75,18.1,46.2,2.42 µM,14.4 µM,1.74,3.53,2.99,17.3,2.7,9.17 µM,37.5,> 100,2.37 µM,5.52
COc1cc(NC(=O)NCc2ccco2)ccc1-c1ccc(NC(=O)NCc2ccco2)cc1OC,2,5.33,1.82 µM,> 100 µM,1.47 µM,3.71,2.84,> 100,1.02 µM,4 µM,3.2,38.2,1.49,4.68,0.663,2.62 µM,16.8,> 100,3.22 µM,17.2
CCc1ccc2nccc(NCCCN(C)C)c2c1[N+](=O)[O-],,> 100,,> 100 µM,,> 100,,> 100,,> 100 µM,,67.4,,> 100,,,,> 100,,> 100
C[C@@H](COCCC(=O)N1CCN(c2ncc(C(F)(F)F)cn2)CC1)Nc1cn[nH]c(=O)c1C(F)(F)F,96.9,> 100,> 100 µM,> 100 µM,27.8 µM,> 100,28.3,> 100,47.8 µM,> 100 µM,32.9,> 100,31.2,> 100,16.4,> 100 µM,15,> 100,34.2 µM,> 100
CCNNC(=O)[C@@H]1[C@H](c2cc(OC)c(OC)c(OC)c2)c2cc3c(cc2[C@H](O)[C@H]1CO)OCO3,0.288,0.833,0.387 µM,> 100 µM,2.37 µM,> 100,0.755,> 100,0.442 µM,> 100 µM,0.369,> 100,0.36,> 100,0.294,0.802 µM,0.316,> 100,0.452 µM,> 100
COc1cccc(CCC(=O)c2cc3c(N)c(C(=O)Nc4cccc(Cl)c4C)sc3nc2C)c1,0.368,,0.502 µM,> 100 µM,1.56 µM,> 100,0.743,> 100,0.193 µM,1.54 µM,0.446,> 100,0.336,> 100,0.408,2.78 µM,0.437,> 100,0.523 µM,> 100
CCOc1nccc2c1nc(-c1nonc1N)n2CC,24.7,> 25,> 25 µM,> 25 µM,> 25 µM,> 25,> 25,> 25,16.2 µM,> 25 µM,> 25,> 25,> 25,> 25,> 25,> 25 µM,> 25,> 25,> 25 µM,> 25
Nc1c(C(=O)N/N=C/c2ccc(-c3cc(Cl)c(Cl)cc3Cl)o2)cnn1-c1ccnc2c(C(F)(F)F)cccc12,3.37,31.1,3.83 µM,> 100 µM,2.6 µM,9.4,3.55,> 100,4.01 µM,53 µM,5.28,> 100,3.42,> 100,5.48,38.7 µM,3.9,> 100,4.17 µM,> 100
O=c1oc2c3ccc4cnccc4c3[nH]c2c2ccccc12,11.8,77.1,13.1 µM,> 100 µM,15.5 µM,31,31.5,> 100,20.6 µM,65.6 µM,13.4,26.6,2.24,6.17,11.5,25.2 µM,3.94,11.6,18.5 µM,> 100
CC(C)C[C@H](NC(=O)[C@@H](NC(=O)c1cccc(-c2ccccc2)n1)[C@@H](C)O)B(O)O,0.00302,0.00881,0.0132 µM and 0.0127 µM,0.0672 µM and 0.022 µM,0.0124 µM and 0.0185 µM,79,0.00408,> 11.1,0.0144 µM and 0.0105 µM,0.0454 µM and 0.0308 µM,,0.0207,0.00425,36.8,0.00264,0.00684 µM and < 0.0114 µM,,> 5.16,0.616 µM and 0.106 µM,> 52.4
O=C(COc1cccc(/C=C2\Oc3ccc4ccccc4c3C2=O)c1)c1ccc(Cl)cc1,6.3,23.2,30.2 µM,> 100 µM,5.56 µM,> 100,> 100,> 100,29.4 µM,99.4 µM,18.1,43,10.7,22.6,> 100,> 100 µM,2.92,8.39,> 100 µM,> 100
